Measurements as given in patent US20140045697A1, “ANDROSTANEDIOL DERIVATIVES AS PLANT GROWTH REGULATOR COMPOUNDS” (priority 2011, published 2014).

What was measured:
[1] = tested on: Phaseolus vulgaris L. cv. Pinto; test: Bean second and third internode elongation bioassay (glass house); type: in vivo; details: for % increase compared with control, Total elongation (internode 2 + internode 3) / % increase compared with control, Internode 2 / % increase compared with control, Internode 3: applied through wound site, scored after 10 days; for % increase compared with control, Internode 2 / % increase compared with control, Internode 3: 8 replicates; for elongation of internode 3 (in words) / elongation of internodes by rate (in words): Table 2; for elongation of internode 3 (in words): standard at low concentrations; for elongation of internodes by rate (in words): rates 6, 20 and 200 per plant
Description: Bean seeds of Phaseolus vulgaris L. cv. Pinto were germinated in drench soil in 140 ml pots; pots with 7-day old seedlings were thinned out to one seedling per pot. Young plants of 12-14 days with 2-3 mm long second internodes were used in bioassay screening experiments. Germination, early plant growth as well the screening of growth symptoms of young plants after application of compounds of formula (I) were done under similar glass house conditions: temperature 22° C. day/18° C. night, humidity 60%, day length 15 h day/9 h night. Plants were watered manually on a daily basis, as needed.
Compounds of formula (I) were applied through a wound site using a micropipette. The wound site was introduced through removal of one of the twin leaves of the first set of true leaves. Small amounts of compounds were delivered at a time. The wound site was sealed with […] of Vaseline that was applied using a cotton ear bud. Compounds of formula (I) were dissolved in 99% ethanol and for the control/check a similar volume was used as for all treatments and in this case, the solution only contained 99% ethanol. Dilutions of stock solutions were made with distilled water. Eight replicates were included per treatment, including for the control. The scoring of growth elongation effects was performed after 10 days.
Growth promotion of bean plants by compounds of formula (I) was tested by scoring elongation of the second and third internode of bean plants. Scoring of growth stimulation effects was done by careful cutting and measuring the length of the two internodes. All compounds were tested at three rates (in […] per plant): 6, 20 and 200. Values represent the average percentage increase in stem elongation compared with the untreated control.

maize = test: Field trials on maize at 2 locations in South Africa (Kransfontein, Lindley), spray application at 5-6 leaf growth stage; type: in vivo; details: for Number of cobs per plot / Plant height 9-10 leaf stage / Plant height 10 leaf stage / Yield / Plant height 6-7 leaf stage / Plant height 9 leaf stage: mean of 6 replicates
Description: Field trials were carried out at 2 locations in South Africa on maize. Treatments as shown in tables 3 and 4 were applied by spray application at 5-6 leaf growth stage. Assessments were made of plant height, number of maize cobs per plot, and total maize yield at the end of the trial. The results in Table 3 and 4 are the mean of 6 replicates per treatment. The standard is an analog of the Formula I of the present invention, as described in WO2009/115060 (formula IV).

## C[C@]12CCC3[C@@H](CC(F)(F)[C@H]4C[C@H](O)CC[C@]34C)C1CC[C@@H]2O (stereo partly drawn) [Compound P2, 6α,6β-difluoro-3α,17β-diol-5α-androstan]
[1]; 6 μg per plant
  % increase compared with control, Total elongation (internode 2 + internode 3): 0%
  % increase compared with control, Internode 2: 0%
  % increase compared with control, Internode 3: 0%
[1]; 20 μg per plant
  % increase compared with control, Total elongation (internode 2 + internode 3): 160%
  % increase compared with control, Internode 2: 50%
  % increase compared with control, Internode 3: 110%
[1]; 200 μg per plant
  % increase compared with control, Total elongation (internode 2 + internode 3): 54%
  % increase compared with control, Internode 2: 31%
  % increase compared with control, Internode 3: 23%
[1]
  elongation of internode 3 (in words): strong elongation of internode 3
  elongation of internodes by rate (in words): at the highest two rates, but not at the lowest rate

## CC(C)[C@@H](C)[C@@H](O)[C@H](O)[C@@H](C)[C@H]1CC[C@H]2[C@@H]3COC(=O)[C@H]4C[C@H](O)[C@H](O)C[C@]4(C)[C@H]3CC[C@]12C [Standard, 24-epi-brassinolide, reference compound]
[1]; 6 μg per plant
  % increase compared with control, Total elongation (internode 2 + internode 3): 154%
  % increase compared with control, Internode 2: 150%
  % increase compared with control, Internode 3: 4%
[1]
  elongation of internode 3 (in words): almost no elongation of the third internode
maize; Kransfontein, 0.3 g AI/ha
  Number of cobs per plot, % increase compared to untreated control: −4.3%
  Plant height 9-10 leaf stage, % increase compared to untreated control: 1.7%
  Plant height 10 leaf stage, % increase compared to untreated control: 2.1%
  Yield, % increase compared to untreated control: −2.8%
  Number of cobs per plot: 33.3
  Plant height 9-10 leaf stage: 36.3 cm
  Plant height 10 leaf stage: 48.7 cm
  Yield: 4017.9 kg/ha
maize; Kransfontein, 0.6 g AI/ha
  Number of cobs per plot, % increase compared to untreated control: −2.9%
  Plant height 9-10 leaf stage, % increase compared to untreated control: 3.6%
  Plant height 10 leaf stage, % increase compared to untreated control: 3.4%
  Yield, % increase compared to untreated control: −3.6%
  Number of cobs per plot: 33.8
  Plant height 9-10 leaf stage: 37.0 cm
  Plant height 10 leaf stage: 49.3 cm
  Yield: 3985.2 kg/ha
maize; Lindley, 0.3 g AI/ha
  Number of cobs per plot, % increase compared to untreated control: 1.1%
  Plant height 6-7 leaf stage, % increase compared to untreated control: 3.4%
  Plant height 9 leaf stage, % increase compared to untreated control: 1.6%
  Yield, % increase compared to untreated control: 2.0%
  Number of cobs per plot: 60.0
  Plant height 6-7 leaf stage: 21.5 cm
  Plant height 9 leaf stage: 31.0 cm
  Yield: 10976.9 kg/ha
maize; Lindley, 0.6 g AI/ha
  Number of cobs per plot, % increase compared to untreated control: 2.5%
  Plant height 6-7 leaf stage, % increase compared to untreated control: 1.9%
  Plant height 9 leaf stage, % increase compared to untreated control: 2.6%
  Yield, % increase compared to untreated control: 1.2%
  Number of cobs per plot: 60.8
  Plant height 6-7 leaf stage: 21.2 cm
  Plant height 9 leaf stage: 31.3 cm
  Yield: 10890.5 kg/ha

## C[C@]12CCC3[C@@H](CC(F)(F)[C@@]4(F)C[C@H](O)CC[C@]34C)C1CC[C@@H]2O (stereo partly drawn) [Compound P1, 5-Fluoro-6α,6β-difluoro-3α,17β-dihydroxy-5α-androstan]
[1]; 6 μg per plant
  % increase compared with control, Total elongation (internode 2 + internode 3): 0%
  % increase compared with control, Internode 2: 0%
  % increase compared with control, Internode 3: 0%
[1]; 20 μg per plant
  % increase compared with control, Total elongation (internode 2 + internode 3): 160%
  % increase compared with control, Internode 2: 44%
  % increase compared with control, Internode 3: 116%
[1]; 200 μg per plant
  % increase compared with control, Total elongation (internode 2 + internode 3): 108%
  % increase compared with control, Internode 2: 30%
  % increase compared with control, Internode 3: 78%
[1]
  elongation of internode 3 (in words): strong elongation of internode 3
  elongation of internodes by rate (in words): at the highest two rates, but not at the lowest rate

## CO[C@]12C[C@H](O)CC[C@]1(C)[C@H]1CC[C@]3(C)[C@@H](O)CC[C@H]3[C@@H]1CC2=O [Compound P3, 5-methoxy-3α,17β-dihydroxyl-5α-androstan-6-one]
[1]; 6 μg per plant
  % increase compared with control, Total elongation (internode 2 + internode 3): 17%
  % increase compared with control, Internode 2: 13%
  % increase compared with control, Internode 3: 4%
[1]; 20 μg per plant
  % increase compared with control, Total elongation (internode 2 + internode 3): 54%
  % increase compared with control, Internode 2: 6%
  % increase compared with control, Internode 3: 48%
[1]; 200 μg per plant
  % increase compared with control, Total elongation (internode 2 + internode 3): 113%
  % increase compared with control, Internode 2: 43%
  % increase compared with control, Internode 3: 70%
[1]
  elongation of internode 3 (in words): strong elongation of internode 3
  elongation of internodes by rate (in words): elongation of both internodes at all three rates tested
maize; Kransfontein, 0.3 g AI/ha
  Number of cobs per plot, % increase compared to untreated control: 0.5%
  Plant height 9-10 leaf stage, % increase compared to untreated control: 6.4%
  Plant height 10 leaf stage, % increase compared to untreated control: 3.8%
  Yield, % increase compared to untreated control: 1.7%
  Number of cobs per plot: 35.0
  Plant height 9-10 leaf stage: 38.0 cm
  Plant height 10 leaf stage: 49.5 cm
  Yield: 4203.2 kg/ha
maize; Kransfontein, 0.6 g AI/ha
  Number of cobs per plot, % increase compared to untreated control: 7.7%
  Plant height 9-10 leaf stage, % increase compared to untreated control: 3.1%
  Plant height 10 leaf stage, % increase compared to untreated control: 4.2%
  Yield, % increase compared to untreated control: 2.3%
  Number of cobs per plot: 37.5
  Plant height 9-10 leaf stage: 36.8 cm
  Plant height 10 leaf stage: 49.7 cm
  Yield: 4227.3 kg/ha
maize; Lindley, 0.3 g AI/ha
  Number of cobs per plot, % increase compared to untreated control: 2.0%
  Plant height 6-7 leaf stage, % increase compared to untreated control: 4.8%
  Plant height 9 leaf stage, % increase compared to untreated control: 5.9%
  Yield, % increase compared to untreated control: 3.3%
  Number of cobs per plot: 60.5
  Plant height 6-7 leaf stage: 21.8 cm
  Plant height 9 leaf stage: 32.3 cm
  Yield: 1115.9 kg/ha
maize; Lindley, 0.6 g AI/ha
  Number of cobs per plot, % increase compared to untreated control: 4.5%
  Plant height 6-7 leaf stage, % increase compared to untreated control: 3.4%
  Plant height 9 leaf stage, % increase compared to untreated control: 8.9%
  Yield, % increase compared to untreated control: 3.1%
  Number of cobs per plot: 62.0
  Plant height 6-7 leaf stage: 21.5 cm
  Plant height 9 leaf stage: 33.2 cm
  Yield: 11099.4 kg/ha
